The source of these data is publication PMC8354611, “Orientin mediates protection against MRSA-induced pneumonia by inhibiting Sortase A” (Virulence, 2021).

The target of test [1] is T1, SrtA (Staphylococcus aureus, UniProt Q2FV99).
T1 construct: 6xHis (N); made in house; host or cells: E. coli BL21(DE3), pET28a
Briefly: FRET assay of SrtA inhibition (cleavage of Abz-LPATG-Dap(Dnp)-NH2). It counts as biochemical, S. aureus USA300. The procedure:
Fluorescence resonance energy transfer (FRET) was detected the activity of orientin against SrtA, as previously described. The reaction mixture (300 µL) consisted of the reaction buffer (50 mM Tris-HCl, 5 mM CaCl2, 150 mM NaCl, pH 7.5), 4 µM purified SrtA, and various concentrations of orientin (0–200 µM). The sample was incubated at 37°C for 1 h, followed by the addition of substrate peptide (10 μM). After incubation for another hour at 37°C, the fluorescence intensity value was detected at the excitation and emission wavelengths of 350 nm and 495 nm, respectively.

Test [2] deals with T2, WT-SrtA (Staphylococcus aureus, UniProt Q2FV99).
T2 construct: 6xHis (N); made in house; host or cells: E. coli BL21(DE3), pET28a
Briefly: Fluorescence quenching assay, WT-SrtA. It counts as binding, S. aureus USA300. As for the experimental part: (§1) The sequence of srtA from S. aureus USA300 was retrieved from the GenBank database. The srtA gene lacking the transmembrane domain (N1–59) was amplified using PCR. The PCR product was then digested and cloned in the BamHI/XhoI restriction sites of the pET28a vector, yielding pET28a-srtA. The site-directed mutagenesis of T93A-SrtA, E105A-SrtA, and C184A-SrtA was conducted using pET28a-srtA using a Multi-Site Mutagenesis Kit (Transgen, Beijing, China). The expression vector was then transformed into the BL21(DE3) expression host, and the bacteria were cultured in BHI medium supplemented with kanamycin (50 µg/mL) at 37°C. In addition, isopropyl-β-D-thiogalactoside (1 mM) was used to induce recombinant SrtA for 4 h at 16°C. Whole-cell lysates of bacteria were prepared through ultrasonic crushing. Recombinant SrtAΔN59 or its mutants were purified using the 6 × His/Ni-NTA system refer to a previous study.
(§2) The binding constants (KA) of orientin to SrtA were determined using the fluorescence quenching assay. The spectra were recorded in the wavelength interval of 280–400 nm. The protocols used to perform the measurements have previously been described [[31–33]].

The test system of test [3] is S. aureus internalization into A549 cells. Briefly: Invasion assay of S. aureus into A549 cells. Type of test: cell-based. Particulars: S. aureus treated with 100 µM orientin, vs untreated WT, P < 0.001. As for the experimental part:
The A549 cells were routinely sub-cultured at 37°C with 5% CO2. Cells in the logarithmic growth phase were seeded in a 24-well plate at a density of 2.5 × 10^5 per well and cultured for 20 h. S. aureus was mixed with orientin ranging from 0 to 100 µM and cultured at 37°C until an OD600 of 1.0 was reached. Then, the cell culture medium was discarded, and the cells were resuspended in DMEM medium. After that, a bacterial suspension containing 2 × 10^7 CFU/mL was added to each well. After incubation for 2 h, 300 µg/mL gentamicin was added to stop the invasion. Then, the cells were lysed after washing with sterile PBS and spread on BHI agar plates to calculate the number of colonies in each sample.

The test system of test [4] is S. aureus USA300. Put plainly: Growth curve assay. Type of test: cell-based. The settings on record: 200 µM orientin, growth curve in BHI. As for the experimental part: (§3) The broth microdilution method was performed to determine the MIC of orientin for S. aureus USA300 as previously described. Briefly, orientin was diluted two-fold serially in a 96-well plate at concentrations ranging from 2 to 1024 µg/mL, followed by inoculation with S. aureus USA300 (10^6 CFU/mL) and incubation at 37°C for 16 h. After incubation, the absorbance (OD) value at 600 nm was measured. For the growth curve experiment, the overnight bacterial culture was diluted in fresh BHI (1:100) with various concentrations of orientin (0–200 µM). S. aureus ΔsrtA was used as the control group. Each sample was cultured at 37°C, and the OD600 was measured at 1 h intervals.

In test [5] the test system is S. aureus biofilm. Briefly: Crystal violet biofilm assay. Type of test: cell-based. The settings on record: 200 µM orientin, compared to the WT group (untreated S. aureus). As for the experimental part:
After overnight culturing, S. aureus was diluted using fresh BHI by 1:100, and different concentrations of orientin ranging from 0 to 200 μM were added with shaking at 37°C to OD600 of 0.6. The bacterial culture (5 µL) was then added to BHI broth containing 1% glucose to a final volume of 200 µL and continue cultured for 18 h. Then, the medium was discarded carefully and washed three times with PBS. Then, the biofilms were stained with a 0.1% (w/v) crystal violet solution for 20 min at ambient temperature conditions. The crystal violet solution was discarded, and the wells were washed thrice with sterile PBS. After drying the plates, 95% ethanol was added into each well, and the absorbance at 570 nm was measured.

In test [6] the test system is D170A. Put plainly: Fluorescence quenching assay, SrtA mutant D170A. It counts as binding, S. aureus USA300.
In test [7] the test system is S. aureus. Put plainly: Pneumonia model experiment. Type of test: in vivo, C57BL/6 J mice. The settings on record: mice. The procedure: The pneumonia model was induced as previously described in 7-week-old female C57BL/6 J mice. For survival experiments, a group of 10 mice was infected with 30 µL of S. aureus culture (2 × 10^8 CFUs) via the intranasal route. An hour after infection, the mice were intraperitoneally injected with orientin (100 mg/kg) at intervals of 12 h. Similarly, mice in the control group were injected with sterile PBS containing 0.5% DMSO. The mice were monitored every 12 h for 96 h after administration to calculate the survival rate. For estimation of the bacterial count in the lung tissue and histopathological analysis, the mice were infected with 30 µL (1 × 10^8 CFUs) of S. aureus cultures, and the infection was allowed to progress for 2 d. The mice were then sacrificed, and the lungs were collected, weighed, and homogenized. Then, appropriate dilutions were plated on BHI-agar plates until a single colony appeared and counted. The lung tissues of mice in each group were aseptically separated and fixed in 10% formalin. The lung tissue sections were observed under an optical microscope after conventional hematoxylin and eosin (H&E) staining.

Test [8] deals with T1, SrtA. Briefly: Reversible inhibition assay of SrtA. Type of test: biochemical, S. aureus USA300. The settings on record: SrtA incubated with 10-fold IC50 of orientin, then diluted. As for the experimental part:
The 10-fold IC50 concentration of orientin was incubated with 100 µL of SrtA (150 µM) for 1 h at 37°C, followed by the addition of 9.9 mL reaction buffer. Then, 190 µL of the mixture was added to each well, and substrate peptide (10 μL) was added until a final concentration of 10 μM was achieved. A multifunctional microplate reader was used to record the fluorescence intensity at 350 nm for excitation and 495 nm for emission.

Test [9] relates to S. aureus USA300. Briefly: Adherence of S. aureus to immobilized fibrinogen. Particulars: WT S. aureus treated with 200 µM orientin. Type of test: cell-based. The procedure:
The S. aureus USA300 was grown in BHI broth for 12 h and then diluted (1:100) in fresh BHI containing different concentrations of orientin, then continued to culture until an OD600 reached 0.5. The ∆srtA mutant was cultured under the same conditions as a positive control. Subsequently, the bacterial culture was added to a 96-well plate previously coated with bovine fibrinogen (20 µg/mL). Then, the sample was incubated for 2 h at 37°C, and 25% (v/v) formaldehyde was added to fix the adherent bacterial cells for 30 min after discarding the suspension. The formaldehyde was removed, and the plate was washed twice with PBS, following which, crystal violet was added to stain the cells for 20 min. The wells were gently washed with PBS and dried, and the OD value at 570 nm was measured.

Test [10] relates to S. aureus USA300. Put plainly: Broth microdilution MIC. Particulars: Staphylococcus aureus, USA300, 16 h. It counts as cell-based. The procedure: as §3
The test system of test [11] is expression of SrtA. Briefly: Western blot analysis of SrtA expression. Type of test: cell-based, S. aureus. The settings on record: orientin 0, 25, 50, 100 or 200 µM. The procedure:
An equal amount of protein extract was separated using SDS-PAGE, followed by transfer to the polyvinylidene difluoride (PVDF) membrane (GE Healthcare, UK). The membrane was incubated in 5% BSA overnight at 4°C. After washing with TBST (TBS + 1‰ Tween 20), the membrane was incubated with rabbit anti-SrtA polyclonal antibody (1:3000) at room temperature. After incubation for 2 h, the membrane was washed thrice and incubated with HRP-conjugated goat anti-rabbit IgG (diluted 1:10,000 in TBST) for 2 h. After washing thrice, the membrane was incubated with Super ECL Plus (US EVERBRIGHT, Suzhou, China) and visualized in an ECL detection system (GE Healthcare, UK). The cytoplasmic protein ClpP was treated in the same way as an internal control. Band quantification was performed using the software ImageQuant TL.

Test [12] concerns the target T3, E105A (Staphylococcus aureus, UniProt Q2FV99, E105A).
T3 construct: 6xHis (N); made in house; host or cells: E. coli BL21(DE3), pET28a
Put plainly: Fluorescence quenching assay, SrtA mutant E105A. It counts as binding, S. aureus USA300. As for the experimental part:
as §1, §2

The target in test [13] is T4, C184A (Staphylococcus aureus, UniProt Q2FV99, C184A).
T4 construct: 6xHis (N); made in house; host or cells: E. coli BL21(DE3), pET28a
Briefly: Fluorescence quenching assay, SrtA mutant C184A. It counts as binding, S. aureus USA300. As for the experimental part:
as §1, §2

Test [14] relates to Staphylococcal protein A (SpA) anchoring to the cell wall. Put plainly: FITC-IgG binding to Staphylococcal protein A (SpA). It counts as cell-based, S. aureus. Particulars: 200 µM orientin, compared to the WT group. The procedure: Overnight culture of S. aureus and S. aureus ΔsrtA was diluted 1:1000 in TSB medium, and different concentrations of orientin (0–200 µM) were added to the culture with shaking at 37°C until the logarithmic growth phase. The bacteria collected by centrifugation were washed thrice with PBS, after which the bacterial precipitate was resuspended with 50 µL of 1:200 diluted FITC-labeled rabbit IgG (Solarbio, Beijing, China). Then, the bacterial precipitate was incubated at ambient temperature for 30 min, and the harvested bacteria were rinsed thrice by PBS. Then, the bacteria were resuspended in 100 µL PBS and added to a black 96-well plate. The Multimode Microplate Reader (Tecan, Spark 20 M) was used to measure the fluorescence intensity at 490 nm for excitation and 520 nm for emission.

Where “and” joins values, the source holds several entries; their conditions need not be identical. Identical values can stand only once. Marks after values point to notes of the source that are not given here.

For `O=c1cc(-c2ccc(O)c(O)c2)oc2c([C@@H]3O[C@H](CO)[C@@H](O)[C@H](O)[C@H]3O)c(O)cc(O)c12` [orientin], the IC50 in [1] was 50.4 ± 0.51 µM. In addition, the dissociation constant Kd in test [2] is 14 µM; in test [12] it was 23.5 µM; in [13], 32.1 µM. Besides, the “ability of S. aureus to invade A549 cells” value in test [3] was “decreased significantly”. The “effect on S. aureus growth” value in test [4] was “little inhibitory effect”. This molecule gave a biofilm biomass in [5] of 31.90 ± 0.25%. Further, the KA in test [6] is 5.37* 1 × 10^4 l/mol. In addition, the “number of viable S. aureus in the lung tissue” value in [7] (100 mg/kg orientin, 2 d after infection, vs untreated group, P < 0.001) is “significantly reduced”. In addition, the lung histopathology entry in test [7] (100 mg/kg orientin, H&E staining) was “inflammatory symptoms were significantly reduced”. Besides, the survival rate in [7] (lethal dose of S. aureus intranasal, 100 mg/kg orientin intraperitoneally at intervals of 12 h, within 72 h) was 60%. Moreover, the “reversibility of SrtA inhibition” value in test [8] is on record as “reversible inhibitor”. Moreover, the “activity of SrtA recovered (relative activity)” value in test [8] (untreated SrtA = 100% activity) is 84.77 ± 1.28% and 84.77%. Besides, in test [9], the “adhesion of S. aureus to fibrinogen” value was 33.10 ± 1.41%. The same molecule displayed an MIC in test [10] of over 512 µg/mL. For the same molecule, the “effect on the expression of SrtA” value in test [11] was “not to affect the expression of SrtA”. In [14], the “relative activity (fluorescence of FITC-IgG bound to SpA)” value is 37.32 ± 1.84%.
